Key:
Type in all cases: in vivo
barnyard grass [1] = assay: Test Example 1: weedkilling efficacy, preemergent weed treatment in the submerged state; A: barnyard grass
In short: (§1)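 Emulsion diluted with water to the specified per-hectare dosage is applied onto flood water (4 cm) over alluvial soil on the sowing day, with barnyard grass, bulrush and pondweed seeded and rice (2.5-leaf) transplanted; plants grow at 25–30 °C and are rated at 3 weeks.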

bulrush [2] = assay: Test Example 1: weedkilling efficacy, preemergent weed treatment in the submerged state; B: bulrush
In short: as §1

oval-leafed pondweed [3] = assay: Test Example 1: weedkilling efficacy, preemergent weed treatment in the submerged state; C: oval-leafed pondweed
In short: as §1

transplanted rice = assay: Test Example 1: preemergent weed treatment in the submerged state, effect on crop; a: transplanted rice
In short: as §1

barnyard grass [4] = assay: Test Example 2: weedkilling efficacy, growth period weed treatment in the submerged state; A: barnyard grass
In short: (§2)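 First, alluvial soil in pots is flooded to 4 cm and mixed seed is sown. Next, plants grow in a greenhouse at 25 to 30° C until the 1-2 leaf stage. Then diluted emulsion is applied onto the water surface at the given g/ha rate, and injury is assessed after 3 weeks.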

bulrush [5] = assay: Test Example 2: weedkilling efficacy, growth period weed treatment in the submerged state; B: bulrush
In short: as §2

oval-leafed pondweed [6] = assay: Test Example 2: weedkilling efficacy, growth period weed treatment in the submerged state; C: oval-leafed pondweed
In short: as §2

| Structure (SMILES) | A: barnyard grass, weed kill grade (barnyard grass [1]; treatment dosage 320 g/ha) | B: bulrush, weed kill grade (bulrush [2]; treatment dosage 320 g/ha) | C: oval-leafed pondweed, weed kill grade (oval-leafed pondweed [3]; treatment dosage 320 g/ha) | a: transplanted rice, effect on crop grade (transplanted rice; treatment dosage 320 g/ha) | A (barnyard grass) weedkilling efficacy grade (barnyard grass [4]; treatment dosage 320 g/ha) | B (bulrush) weedkilling efficacy grade (bulrush [5]; treatment dosage 320 g/ha) | C (oval-leafed pondweed) weedkilling efficacy grade (oval-leafed pondweed [6]; treatment dosage 320 g/ha) | A: barnyard grass, weed kill grade (barnyard grass [1]; treatment dosage 252 g/ha) | B: bulrush, weed kill grade (bulrush [2]; treatment dosage 252 g/ha) | C: oval-leafed pondweed, weed kill grade (oval-leafed pondweed [3]; treatment dosage 252 g/ha) | a: transplanted rice, effect on crop grade (transplanted rice; treatment dosage 252 g/ha) | A (barnyard grass) weedkilling efficacy grade (barnyard grass [4]; treatment dosage 252 g/ha) | B (bulrush) weedkilling efficacy grade (bulrush [5]; treatment dosage 252 g/ha) | C (oval-leafed pondweed) weedkilling efficacy grade (oval-leafed pondweed [6]; treatment dosage 252 g/ha) |
| --- | --- | --- | --- | --- | --- | --- | --- | --- | --- | --- | --- | --- | --- | --- |
| CC(C)(C(=O)Nc1cc(C(F)(F)F)ccn1)N1COCN(c2ccc(Cl)c(Cl)c2)C1=O [A-6-03] | 3 (weed kill ratio 40% or more, less than 70%) | 5 (weed kill ratio 90% or more, (practically complete withering)) | 0 (weed kill ratio 5% or less (practically no effect)) | 0 (weed kill ratio 5% or less (practically no effect)) | 0 (weed kill ratio 5% or less (practically no effect)) | 2 (weed kill ratio 20% or more, less than 40%) | 0 (weed kill ratio 5% or less (practically no effect)) |  |  |  |  |  |  |  |
| Cc1ccc(N2COCN(C(C)(C)C(=O)Nc3cc(C(F)(F)F)ccn3)C2=O)cc1Cl [A-6-04] | 4 (weed kill ratio 70% or more, less than 90%) | 4 (weed kill ratio 70% or more, less than 90%) | 2 (weed kill ratio 20% or more, less than 40%) | 0 (weed kill ratio 5% or less (practically no effect)) | 1 (weed kill ratio 5% or more, less than 20%) | 2 (weed kill ratio 20% or more, less than 40%) | 0 (weed kill ratio 5% or less (practically no effect)) |  |  |  |  |  |  |  |
| CC(C)(C(=O)Nc1cc(Cl)cc(Cl)n1)N1COCN(c2ccccc2Cl)C1=O [A-6-06] |  |  |  |  |  |  |  | 5 (weed kill ratio 90% or more, (practically complete withering)) | 5 (weed kill ratio 90% or more, (practically complete withering)) | 5 (weed kill ratio 90% or more, (practically complete withering)) | 2 (weed kill ratio 20% or more, less than 40%) | 5 (weed kill ratio 90% or more, (practically complete withering)) | 5 (weed kill ratio 90% or more, (practically complete withering)) | 5 (weed kill ratio 90% or more, (practically complete withering)) |
| Cc1cccc(N2COCN(C(C)(C)C(=O)Nc3cc(C(F)(F)F)ccn3)C2=O)c1 [A-6-07] | 5 (weed kill ratio 90% or more, (practically complete withering)) | 5 (weed kill ratio 90% or more, (practically complete withering)) | 5 (weed kill ratio 90% or more, (practically complete withering)) | 1 (weed kill ratio 5% or more, less than 20%) | 4 (weed kill ratio 70% or more, less than 90%) | 5 (weed kill ratio 90% or more, (practically complete withering)) | 3 (weed kill ratio 40% or more, less than 70%) |  |  |  |  |  |  |  |
| Cc1cccc(N2COCN(C(C)(C)C(=O)Nc3cc(Cl)cc(Cl)n3)C2=O)c1 [A-6-08] | 5 (weed kill ratio 90% or more, (practically complete withering)) | 5 (weed kill ratio 90% or more, (practically complete withering)) | 5 (weed kill ratio 90% or more, (practically complete withering)) | 0 (weed kill ratio 5% or less (practically no effect)) | 5 (weed kill ratio 90% or more, (practically complete withering)) | 5 (weed kill ratio 90% or more, (practically complete withering)) | 4 (weed kill ratio 70% or more, less than 90%) |  |  |  |  |  |  |  |
| Cc1ccc(N2COCN(C(C)(C)C(=O)Nc3cc(F)cc(F)n3)C2=O)cc1 [A-6-10] | 5 (weed kill ratio 90% or more, (practically complete withering)) | 5 (weed kill ratio 90% or more, (practically complete withering)) | 5 (weed kill ratio 90% or more, (practically complete withering)) | 1 (weed kill ratio 5% or more, less than 20%) | 4 (weed kill ratio 70% or more, less than 90%) | 5 (weed kill ratio 90% or more, (practically complete withering)) | 5 (weed kill ratio 90% or more, (practically complete withering)) |  |  |  |  |  |  |  |
| Cc1ccc(N2COCN(C(C)(C)C(=O)Nc3cc(Cl)cc(F)n3)C2=O)cc1 [A-6-11] | 5 (weed kill ratio 90% or more, (practically complete withering)) | 5 (weed kill ratio 90% or more, (practically complete withering)) | 5 (weed kill ratio 90% or more, (practically complete withering)) | 0 (weed kill ratio 5% or less (practically no effect)) | 4 (weed kill ratio 70% or more, less than 90%) | 5 (weed kill ratio 90% or more, (practically complete withering)) | 5 (weed kill ratio 90% or more, (practically complete withering)) |  |  |  |  |  |  |  |
